Numbers after ± are expanded uncertainties.
Tests used:
[1] = Liquid; for mass density: 101.33 kPa, Pycnometric method; for vapor or sublimation pressure: Ebulliometric method (Recirculating still)
[2] = refractive index (Na D-line) (dimensionless); settings: 101.33 kPa, Liquid, Standard Abbe refractometry

Question: For `ClC(Cl)C(Cl)Cl` [1,1,2,2-tetrachloroethane], which mass density ([1]; 293.15 K) is on record?
Answer: 1593 ± 1.8 kg/m3

Question: And the “vapor or sublimation pressure” value ([1]; 417.25 K)?
Answer: 95.6 ± 1 kPa

Question: And the refractive index ([2]; 293.15 K)?
Answer: 1.494 ± 0.0008

Question: With `ClCCCl` [1,2-dichloroethane] as the compound, how does the mass density ([1]; 293.15 K) read?
Answer: 1252.9 ± 1.3 kg/m3

Question: And the “vapor or sublimation pressure” value ([1]; 355.15 K)?
Answer: 95.6 ± 1 kPa

Question: What about the refractive index ([2]; 293.15 K) of the same compound?
Answer: 1.4196 ± 0.0008

Question: With `CCCCCCO` [hexan-1-ol] as the compound, how does the mass density ([1]; 298.15 K) read?
Answer: 815.3 ± 0.8 kg/m3

Question: What about the “vapor or sublimation pressure” value ([1]; 428.45 K) of the same compound?
Answer: 95.6 ± 1 kPa

Question: What about the refractive index ([2]; 298.15 K) of the same compound?
Answer: 1.4157 ± 0.0008

Question: Which mass density ([1]; 293.15 K) does the source give for `ClC(Cl)=C(Cl)Cl` [tetrachloroethene] here?
Answer: 1623 ± 1.8 kg/m3

Question: What about the “vapor or sublimation pressure” value ([1]; 392.15 K) of the same compound?
Answer: 95.6 ± 1 kPa

Question: What about the refractive index ([2]; 293.15 K) of the same compound?
Answer: 1.5058 ± 0.0008

Question: Which results are given for `ClC=C(Cl)Cl` [trichloroethene]?
Answer: mass density ([1]; 303.15 K): 1451.3 ± 1.6 kg/m3; vapor or sublimation pressure ([1]; 358.45 K): 95.6 ± 1 kPa; refractive index ([2]; 303.15 K): 1.475 ± 0.0008

Reference: the NIST ThermoML archive (doi:10.1021/je9000608)
